# Assay results: US8987249B2, “Substituted 2-Aza-bicyclo[2.2.1]heptane-3-carboxylic acid (benzyl-cyano-methyl)-amides inhibitors of Cathepsin C” (Boehringer Ingelheim International GmbH, priority 2013, dated 2015)
# Columns and labels:
# [1] = target: recombinant human Cathepsin K (Homo sapiens (Human), UniProt P43235); assay: Inhibition of human Cathepsin K; assay type: biochemical; conditions: substrate Z-Gly-Pro-Arg-AMC
# In short: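 Fluorogenic Z-Gly-Pro-Arg-AMC cleavage, 60 min at room temperature, after a 10 min enzyme–compound preincubation (enzyme 2 ng/μL; compound 0.1 nM–100 μM; 1% DMSO). Buffer pH 5.5 with sodium acetate, EDTA and L-cysteine; procathepsin first activated 30 min at pH 3.5. E64 (1 μM) stop; IC50 derived from percent of vehicle signal minus background (Ex 360/Em 460 nm).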
# [2] = target: recombinant human DPPI (Cathepsin C) (Homo sapiens (Human), UniProt P53634); assay: Inhibition of human DPPI (Cathepsin C); assay type: biochemical; conditions: substrate Gly-Arg-AMC
# Sequence of recombinant human DPPI (Cathepsin C) (P53634 231-394): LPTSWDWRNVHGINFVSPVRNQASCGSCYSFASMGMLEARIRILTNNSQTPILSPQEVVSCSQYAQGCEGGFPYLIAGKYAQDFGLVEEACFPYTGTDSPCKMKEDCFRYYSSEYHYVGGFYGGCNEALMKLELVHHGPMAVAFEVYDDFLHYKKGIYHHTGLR
# Sequence of recombinant human DPPI (Cathepsin C) (P53634 395-463): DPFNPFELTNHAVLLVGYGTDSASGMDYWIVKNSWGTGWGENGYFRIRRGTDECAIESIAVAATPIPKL
# Sequence of recombinant human DPPI (Cathepsin C) (P53634 25-134): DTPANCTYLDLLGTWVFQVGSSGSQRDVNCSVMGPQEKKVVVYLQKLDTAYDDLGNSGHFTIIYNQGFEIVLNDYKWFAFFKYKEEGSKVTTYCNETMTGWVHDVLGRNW
# In short: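 Fluorescence read after 30 min room-temperature turnover of 50 μM (final) substrate by recombinant human cathepsin C, pH 6.0 MES/NaCl/DTT/BSA buffer, quenched by Gly-Phe-DMK (1 μM final). Activity as percent of vehicle after background subtraction, used for IC50.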
# [3] = in vitro; conditions: human, microsomes, pH 7.6
# Method: Determination of Metabolic Stability with Human Liver Microsomes
# The metabolic degradation of the test compound is assayed at 37° C. with pooled human liver microsomes. The final incubation volume of 100 μl per time point contains TRIS buffer pH 7.6 (0.1 M), magnesium chloride (5 mM), microsomal protein (1 mg/ml) and the test compound at a final concentration of 1 μM. Following a short preincubation period at 37° C., the reactions are initiated by addition of beta-nicotinamide adenine dinucleotide phosphate, reduced form (NADPH, 1 mM) and terminated by transferring an aliquot into acetonitrile after different time points. Additionally, the NADPH-independent degradation is monitored in incubations without NADPH, terminated at the last time point. The [%] remaining test compound after NADPH independent incubation is reflected by the parameter c (control) (metabolic stability). The quenched incubations are pelleted by centrifugation (10,000 g, 5 min). An aliquot of the supernatant is assayed by LC-MS/MS for the amount of parent compound.
# The half-life (t½ INVITRO) is determined by the slope of the semilogarithmic plot of the concentration-time profile.
# Sequence of recombinant human Cathepsin K (P43235 115-329): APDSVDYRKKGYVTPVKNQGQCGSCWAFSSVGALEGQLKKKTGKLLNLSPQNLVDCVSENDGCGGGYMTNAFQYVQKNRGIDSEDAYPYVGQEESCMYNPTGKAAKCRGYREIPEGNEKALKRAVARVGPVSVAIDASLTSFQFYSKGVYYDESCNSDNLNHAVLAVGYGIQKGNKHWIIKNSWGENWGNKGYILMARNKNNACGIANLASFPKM
structure (smiles),measurement,setting,value
CN1C2CCC1CN(c1ccc(C[C@@H](C#N)NC(=O)[C@H]3N[C@@H]4CC[C@H]3C4)c(F)c1)C2 [Example 333],IC50,[1],2400 nM
same,IC50,[2],15.3 nM
same,half-life at 1 μM,[3],> 2.17 h
